Laboratory results taken from patent US11530227B2, “Heterocyclic compounds and their use in preventing or treating bacterial infections” (MUTABILIS, priority 2018, dated 2022).
Counter-ions that a name gives are not always drawn. Like-named read-outs stand apart in the source and are kept apart here.

Tests used:
[1] = target: T1, OXA-11 (Pseudomonas aeruginosa, UniProt Q06778); test: biochemical
T1 construct: made in house; host or cells: E. coli

[2] = target: T2, SHV-1 (Klebsiella pneumoniae, UniProt P0AD64); test: biochemical
T2 construct: made in house; host or cells: E. coli

[3] = target: T3, AmpC P. aeruginosa (Pseudomonas aeruginosa, UniProt P24735); test: biochemical
T3 construct: made in house; host or cells: E. coli

[4] = target: T4, TEM-1 (Escherichia coli, UniProt P62593); test: β-lactamase inhibitory activity, nitrocefin hydrolysis; type: biochemical
T4 construct: made in house; host or cells: E. coli

[5] = target: T5, CTX-M-15 (Escherichia coli, UniProt Q9EXV5); test: biochemical
T5 construct: made in house; host or cells: E. coli

[6] = target: T6, OXA-1 (Escherichia coli, UniProt P13661); test: biochemical
T6 construct: made in house; host or cells: E. coli

[7] = target: T7, OXA-48 (Klebsiella pneumoniae, UniProt Q6XEC0); test: biochemical
T7 construct: made in house; host or cells: E. coli

[8] = target: T8, KPC-2 (Klebsiella pneumoniae, UniProt Q9F663); test: biochemical
T8 construct: made in house; host or cells: E. coli

[9] = target: P99 AmpC (Enterobacter cloacae, UniProt P05364); test: biochemical
[10] = target: T9, OXA-15 (Pseudomonas aeruginosa, UniProt Q51574); test: biochemical
T9 construct: made in house; host or cells: E. coli

[11] = test system: E. coli ECO 190317; test: MIC of compounds alone, broth microdilution (CLSI); details: Escherichia coli, ECO190317, read-out: MIC alone
[12] = class (A), nitrocefin 200 μM, 30 min pre-incubation, room temperature, read-out: BLA IC50 TEM-1
[13] = class (A), nitrocefin 200 μM, 30 min pre-incubation, room temperature, read-out: BLA IC50 CTX-M-15
[14] = class (D), nitrocefin 200 μM, 30 min pre-incubation, room temperature, read-out: BLA IC50 OXA-1
[15] = class (D), nitrocefin 200 μM, 30 min pre-incubation, room temperature, read-out: BLA IC50 OXA-48
[16] = class (A), nitrocefin 200 μM, 30 min pre-incubation, room temperature, read-out: BLA IC50 KPC-2
[17] = class (C), nitrocefin 200 μM, 30 min pre-incubation, room temperature, read-out: BLA IC50 AmpC (PAE)

Structure (SMILES) | IC50 [1] [nM] | IC50 [2] [nM] | IC50 [3] [nM] | IC50 [4, 12] [nM] | IC50 [5, 13] [nM] | IC50 [6, 14] [nM] | IC50 [7, 15] [nM] | IC50 [8, 16] [nM] | IC50 [9] [nM] | IC50 [10] [nM] | MIC [11] [µg/mL] | IC50 [3, 17] [nM] | IC50 [4] [nM] | IC50 [5] [nM] | IC50 [6] [nM] | IC50 [7] [nM] | IC50 [8] [nM]
CCOC(=O)[C@@H]1c2c(sc3ccccc23)[C@@H]2CN1C(=O)N2OS(=O)(=O)[O-].[Na+] (relative stereo) [Example 2, sulfate] | 2.2 | 0.43 | 2.5 | 0.22 | 2.6 | 37 | 0.66 | 0.94 | 0.51 | 830 | – | – | – | – | – | – | –
CCOC(=O)[C@@H]1c2c(sc3ccccc23)[C@@H]2CN1C(=O)N2OS(=O)(=O)[O-].[Na+] (relative stereo) [Example 2] | – | – | – | – | – | – | – | – | – | – | > 32 | – | – | – | – | – | –
NC(=O)[C@@H]1c2c(sc3ccccc23)[C@@H]2CN1C(=O)N2OS(=O)(=O)[O-].[Na+] (relative stereo) [Example 3, sulfate] | 31 | 2.2 | – | 1.3 | 2.5 | 190 | 4.8 | 9.3 | 4.5 | 7100 | – | 62 | – | – | – | – | –
NC(=O)[C@@H]1c2c(sc3ccccc23)[C@@H]2CN1C(=O)N2OS(=O)(=O)[O-].[Na+] (relative stereo) [Example 3] | – | – | – | – | – | – | – | – | – | – | 8 | – | – | – | – | – | –
CCOC(=O)[C@@H]1c2c(n(C)c3ccccc23)[C@@H]2CN1C(=O)N2OS(=O)(=O)[O-].[Na+] (relative stereo) [Example 6, sulfate] | 160 | 0.25 | – | 0.2 | 1.5 | 1300 | 4.6 | 4.2 | 2 | 6500 | – | 3.6 | – | – | – | – | –
CCOC(=O)[C@@H]1c2c(n(C)c3ccccc23)[C@@H]2CN1C(=O)N2OS(=O)(=O)[O-].[Na+] (relative stereo) [Example 6] | – | – | – | – | – | – | – | – | – | – | > 32 | – | – | – | – | – | –
CC(C)(O/N=C(\C(=O)N[C@@H]1C(=O)N2C(C(=O)[O-])=C(C[n+]3ccccc3)CS[C@H]12)c1csc(N)n1)C(=O)O [CAZ, Ceftazidime, reference compound] | – | – | – | – | – | – | – | – | – | – | 128 | – | – | – | – | – | –
O=C1N2Cc3c(sc4ccccc34)C(C2)N1OS(=O)(=O)[O-].[Na+] (stereo not drawn) [Example 1, Sodium (2,5-methano-3-oxo-1,5-dihydrobenzothiopheno[2,3-e][1,3]diazepin-4-yl) sulfate] | 41 | 4.1 | 8.8 | 0.65 | 1 | 120 | 1.1 | 26 | 17 | 3400 | 16 | – | – | – | – | – | –
O=C1N2Cc3nc4ccccc4cc3C(C2)N1OS(=O)(=O)[O-].[Na+] (stereo not drawn) [Example 4, sodium 1,4-methano-3-oxo-1,5-dihydro-[1,3]diazepino[5,6-b]quinolin-2-yl) sulfate] | 590 | 150 | – | 36 | 9.9 | 4100 | 1.5 | 370 | 120 | 13000 | – | 2800 | – | – | – | – | –
O=C1N2Cc3nc4ccccc4cc3C(C2)N1OS(=O)(=O)[O-].[Na+] (stereo not drawn) [Example 4] | – | – | – | – | – | – | – | – | – | – | 8 | – | – | – | – | – | –
O=C1N2Cc3nc4cnccc4cc3C(C2)N1OS(=O)(=O)[O-].[Na+] (stereo not drawn) [Example 5, sodium (1,4-methano-3-oxo-1,5-dihydro-[1,3]diazepino[5,6-b][1,7]naphthyridin-2-yl) sulfate] | 190 | 77 | – | 14 | 14 | 1700 | 1 | 160 | 100 | 1800 | 4 | 3600 | – | – | – | – | –
CCN(CC)C(=O)N1CCc2sc3c(c2C1)CN1CC3N(OS(=O)(=O)O)C1=O (stereo not drawn) [Example 7, sodium [9-(diethylcarbamoyl)-2,5-methano-3-oxo-5,7,8,10-tetrahydro-1H-pyrido[3,4]thieno[1,3-d][1,3]diazepin-4-yl] sulfate] | 110 | 13 | – | – | 1.3 | 5100 | 6.8 | 26 | – | 14000 | > 32 | 550 | 43 | – | – | – | –
O=C1N2Cc3c(sc4c3CNCC4)C(C2)N1OS(=O)(=O)O (stereo not drawn) [Example 8, (2,5-methano-3-oxo-1,5,7,8,9,10-hexahydropyrido[2,3]thieno[2,4-d][1,3]diazepin-4-yl) hydrogen Sulfate] | 840 | 26 | – | 9.6 | 6.1 | 15000 | 18 | 1300 | 1600 | 30000 | 1 | 8600 | – | – | – | – | –
Cn1c2c(c3scnc31)C1CN(C2)C(=O)N1OS(=O)(=O)O (stereo not drawn) [Example 9, sodium (6,9-methano-4-methyl-7-oxo-5,9-dihydrothiazolo[3,4]pyrrolo[1,3-d][1,3]diazepin-8-yl) sulfate] | 62 | 0.57 | 590 | – | – | – | – | – | 120 | 940 | > 32 | – | 0.49 | 1.1 | 290 | 1.2 | 26
